Assay [1] concerns C. parapsilosis Y-1761. Nature of the assay: microbe, parasite or virus in culture. Format: cell-based. The note with it: Lodderomyces parapsilosis, Y1761, 24-h incubation, mean of 3 replicates from 2 independent experiments, read-out: Minimum Inhibitory Concentration (MIC). The protocol: (§1) Strains were obtained from American Type Culture Collection (ATCC, Manassas, VA) or the clinical isolate collection at Trideum Biosciences (Frederick, MD, USA). Bioluminescence strains of P. aeruginosa 19660, transfected with the Xen5 luciferase gene, and S. aureus ATCC® 49525™ (Wright), transfected with the Xen36 luciferase gene, were obtained from Perkin Elmer (Hopkinton, MA).
(§2) A single colony was aseptically picked from an agar overlay and released in 25–30 mL of pre-warmed trypticase soy broth in a culture flask. Each culture was incubated overnight in a 37°C incubator. […] Pathogen growth was measured by absorbance at 600 nm. Four replicas were included for each test agent concentration. […]

For assay [2], the system named is C. parapsilosis Y-1763. The assay is described as follows: microbe, parasite or virus in culture. The note with it: Lodderomyces parapsilosis, Y1763, 24-h incubation, mean of 3 replicates from 2 independent experiments, read-out: Minimum Inhibitory Concentration (MIC). Format: cell-based. Here is the method:
as §1, §2

Assay [3] deals with A. baumannii 6043. The assay is described as follows: microbe, parasite or virus in culture. It counts as cell-based, Acinetobacter baumannii. The note with it: Acinetobacter baumannii, 6043, 24 h, read-out: Minimum Inhibitory Concentration (MIC). The protocol:
as §1, §2

Assay [4] relates to A. baumannii 6838. Nature of the assay: microbe, parasite or virus in culture. It counts as cell-based, Acinetobacter baumannii. The note with it: Acinetobacter baumannii, 6838, 24 h, read-out: Minimum Inhibitory Concentration (MIC). Here is the method:
as §1, §2

Assay [5] deals with A. baumannii ATCC 17978. Nature of the assay: microbe, parasite or virus in culture. Format: cell-based, Acinetobacter baumannii. The note with it: Acinetobacter baumannii, ATCC17978, 24 h, read-out: Minimum Inhibitory Concentration (MIC). Here is the method:
as §1, §2

Assay [6] deals with K. pneumonia 6066. Nature of the assay: microbe, parasite or virus in culture. Format: cell-based, Klebsiella pneumoniae. The note with it: Klebsiella pneumoniae, 6066, 24 h, read-out: Minimum Inhibitory Concentration (MIC). Here is the method:
as §1, §2

In assay [7] the test system is K. pneumonia 6069. The assay is described as follows: microbe, parasite or virus in culture. It counts as cell-based, Klebsiella pneumoniae. The note with it: Klebsiella pneumoniae, 6069, 24 h, read-out: Minimum Inhibitory Concentration (MIC). The protocol:
as §1, §2

Assay [8] has as its system K. pneumonia ATCC 10031. The assay is described as follows: microbe, parasite or virus in culture. Format: cell-based, Klebsiella pneumoniae. The note with it: Klebsiella pneumoniae, ATCC10031, 24 h, read-out: Minimum Inhibitory Concentration (MIC). The protocol:
as §1, §2

For assay [9], the system named is P. aeruginosa 6186. Nature of the assay: microbe, parasite or virus in culture. The note with it: Pseudomonas aeruginosa, 6186, 24 h, read-out: Minimum Inhibitory Concentration (MIC). It counts as cell-based, Pseudomonas aeruginosa. The protocol: as §1, §2
Assay [10] deals with P. aeruginosa ATCC 19660. The assay is described as follows: microbe, parasite or virus in culture. It counts as cell-based, Pseudomonas aeruginosa. The note with it: Pseudomonas aeruginosa, ATCC19660, 24 h, read-out: Minimum Inhibitory Concentration (MIC). The protocol: as §1, §2
In assay [11] the test system is P. aeruginosa ATCC 27853. Nature of the assay: microbe, parasite or virus in culture. Format: cell-based, Pseudomonas aeruginosa. The note with it: Pseudomonas aeruginosa, ATCC27853, 24 h, read-out: Minimum Inhibitory Concentration (MIC). Here is the method:
as §1, §2

In assay [12] the test system is MRSA 6313. The assay is described as follows: microbe, parasite or virus in culture. It counts as cell-based, Staphylococcus aureus. The note with it: Staphylococcus aureus, MRSA, 24 h, read-out: Minimum Inhibitory Concentration (MIC). The protocol: as §1, §2
In assay [13] the test system is MRSA 6381. Nature of the assay: microbe, parasite or virus in culture. The note with it: Staphylococcus aureus, MRSA, 24 h, read-out: Minimum Inhibitory Concentration (MIC). It counts as cell-based, Staphylococcus aureus. Here is the method: as §1, §2
For assay [14], the system named is MRSA ATCC 33592. Nature of the assay: microbe, parasite or virus in culture. It counts as cell-based, Staphylococcus aureus. The note with it: Staphylococcus aureus, 24 h, read-out: Minimum Inhibitory Concentration (MIC). The protocol: as §1, §2
The test system of assay [15] is S. aureus 6061. Nature of the assay: microbe, parasite or virus in culture. It counts as cell-based, Staphylococcus aureus. The note with it: Staphylococcus aureus, 6061, 24 h, read-out: Minimum Inhibitory Concentration (MIC). Here is the method: as §1, §2
The test system of assay [16] is S. aureus B-767. Nature of the assay: microbe, parasite or virus in culture. Format: cell-based, Staphylococcus aureus. The note with it: Staphylococcus aureus, B767, 24 h, read-out: Minimum Inhibitory Concentration (MIC). The protocol:
as §1, §2

Assay [17] deals with S. epidermis ATCC 51625. Nature of the assay: microbe, parasite or virus in culture. It counts as cell-based, S. epidermidis. The note with it: Staphylococcus epidermidis, ATCC51625, 24 h, read-out: Minimum Inhibitory Concentration (MIC). Here is the method:
as §1, §2

The test system of assay [18] is E. cloacae 6053. Nature of the assay: microbe, parasite or virus in culture. It counts as cell-based. The note with it: Enterobacter cloacae, 6053, 24 h, read-out: Minimum Inhibitory Concentration (MIC). Here is the method:
as §1, §2

The test system of assay [19] is E. cloacae 6054. The assay is described as follows: microbe, parasite or virus in culture. It counts as cell-based. The note with it: Enterobacter cloacae, 6054, 24 h, read-out: Minimum Inhibitory Concentration (MIC). Here is the method:
as §1, §2

Assay [20] has as its system bioluminescent P. aeruginosa 19660. Nature of the assay: Bioluminescence time-kill assay. Format: cell-based, Pseudomonas aeruginosa. The note with it: antibiotics after 30 min incubation, triplicates, two independent experiments. Here is the method: as §1
(§3) Non-invasive real-time evaluation of viability, mammalian, and bacterial cells, was performed using bioluminescent human keratinocytes (HaCaT, AddexBio, San Diego, CA) and murine L929 fibroblast cells (ATCC, Manassas, VA). The bioluminescent variants were constructed by transfection with a luciferase gene (RediFect Red-Fluc-Puromycin, Catalog #CL596002) (Hamblin et al., [2003]). […] Each concentration was performed in triplicate. Bioluminescence imaging was performed at pre-specified times (0, 15, and 30 min and 1, 3, 5, 8, and 24 h) and compared to concurrently run vehicle-controls. The 96-well plate was positioned on the stage (12.5-cm field of view) within the in vivo Imaging System (IVIS) imaging system (Caliper Life Sciences, Inc., Hopkinton, MA, USA), with an open emission filter, binning of 4, and f-stop 1, and a 1-min exposure time. The resultant photons emitted from the live cells were quantified using Living Image® software (version 4.3, Caliper Life Sciences, Inc.). […]

Assay [21] relates to bioluminescent S. aureus 49525. Nature of the assay: Bioluminescence time-kill assay. Format: cell-based, Staphylococcus aureus. The note with it: antibiotics after 30 min incubation, triplicates, two independent experiments. Here is the method:
as §1, §3

The subject of assay [22] is 6 hr MRSA ATCC 1556 biofilm. It counts as cell-based, Staphylococcus aureus. The note with it: ATCC 1556, 6 h.
Assay [23] deals with mature (120 h) MRSA ATCC 1556 biofilm. Format: cell-based, Staphylococcus aureus. The note with it: ATCC 1556, 120 h.
For assay [24], the system named is preformed C. albicans biofilm. The note with it: ref Woodburn et al., under review; cited from earlier work.

Structures are written as SMILES. Converted amounts (≈) assume the structure as drawn. “And” between values parts separate entries of the source, which are not always exact repeats. Equal values may be shown once. Bounds are passed on as bounds.

As to `C[C@@H]1[C@H](O)[C@@H](C)/C=C/C=C/C=C/C=C/C=C/C=C/C=C/[C@H](O[C@@H]2O[C@H](C)[C@@H](O)[C@H](N)[C@@H]2O)C[C@@H]2O[C@](O)(C[C@@H](O)C[C@@H](O)[C@H](O)CC[C@@H](O)C[C@@H](O)CC(=O)O[C@H]1C)C[C@H](O)[C@H]2C(=O)O` [Amphotericin b, amphotericin B], the MIC is 1 µM and 1.08 µg/mL in assay [1]; 1 µM and 1.08 µg/mL in assay [2].
In the case of `CN[C@H](CC(C)C)C(=O)N[C@H]1C(=O)N[C@@H](CC(N)=O)C(=O)N[C@H]2C(=O)N[C@H]3C(=O)N[C@H](C(=O)N[C@H](C(=O)O)c4cc(O)cc(O)c4-c4cc3ccc4O)[C@H](O)c3ccc(c(Cl)c3)Oc3cc2cc(c3O[C@@H]2O[C@H](CO)[C@@H](O)[C@H](O)[C@H]2O[C@H]2C[C@](C)(N)[C@H](O)[C@H](C)O2)Oc2ccc(cc2Cl)[C@H]1O` [Vancomycin, vancomycin], the MIC in [3], in [4], in assay [5], in assay [6], in assay [7] and in [8] was greater than 88.3 µM throughout. The MIC is greater than 88.3 µM in [9]; greater than 88.3 µM in assay [10]; greater than 88.3 µM in assay [11]; 1.4 µM (≈ 2.03 µg/mL) in assay [12]; 1.4 µM (≈ 2.03 µg/mL) in [13]; 1.4 µM (≈ 2.03 µg/mL) in assay [14]. Also, the MIC in assay [15] was 2.1 µM (≈ 3.04 µg/mL); in [16], greater than 88.3 µM; in [17], 2.1 µM (≈ 3.04 µg/mL); in [18], greater than 88.3 µM; in assay [19], greater than 88.3 µM. The “Bactericidal activity in time-kill assay” value in assay [20] and in assay [21] was “no trace of antibacterial activity” throughout.
Turning to `CCCCCCCCCC(=O)N[C@@H](Cc1c[nH]c2ccccc12)C(=O)N[C@H](CC(N)=O)C(=O)N[C@@H](CC(=O)O)C(=O)N[C@@H]1C(=O)NCC(=O)N[C@@H](CCCN)C(=O)N[C@@H](CC(=O)O)C(=O)N[C@H](C)C(=O)N[C@@H](CC(=O)O)C(=O)NCC(=O)N[C@H](CO)C(=O)N[C@@H]([C@H](C)CC(=O)O)C(=O)N[C@@H](CC(=O)c2ccccc2N)C(=O)O[C@@H]1C` [daptomycin], the “EC90, biofilm CFU” value in [22] was greater than 100 µg/mL. In assay [23], the “EC90 (concentration to reduce biofilm by 90%)” value was ~ 100 μg/mL.
With `OC(Cn1cncn1)(Cn1cncn1)c1ccc(F)cc1F` [fluconazole], the “Killing fungi in preformed C. albicans biofilm and preventing biofilm formation” value in assay [24] is “markedly ineffective”.

These data come from PMC6667648 (Frontiers in Microbiology, 2019).
